Experimental data taken from patent US8288378B2, “Phosphoinositide modulation for the treatment of neurodegenerative diseases” (The Trustees of Columbia University in the City of New York, priority 2006, dated 2012).

Key:
[1] = system: CA1 region of the hippocampus; test: Long-term potentiation in adult hippocampal slices (CA1, tetanic stimulation of Schaeffer collateral pathway); design: species or system mouse
Excerpt: Long-term potentiation (LTP) was induced in the CA1 region of the hippocampus through tetanic stimulation of the Schaeffer collateral pathway.

PC12 cells = test: PIP2 sensor GFP-PHPLCδ1 plasma membrane/cytosol localization; format: cell-based; conditions: for GFP-PHPLCδ1 probe localization: oAβ42, 2 μM ionomycin, Aβ42Rev
Procedure: Confocal microscopy. […] Cells have been analyzed after being treated for different time lengths: 0, 10 minutes, 30 minutes and 120 minutes. Cells were washed in phosphate buffer and fixed with 4 percent paraformaldehyde. Confocal z-stack images (0.5 μm) of PC12 cells were obtained using Nikon EZ-C1.2.30 confocal microscope, (×100) oil immersion objective. Quantification of GFP intensity was calculated using the ImageJ software: for each cell in a given image, a line intensity profile across the cell was obtained. The relative decrease in plasma membrane localization was calculated as the ratio between the plasma membrane fluorescence intensity and the average cytosolic fluorescence intensity. The average of the ratio was reported in the graph.
PC12 cells were cultured in RPMI media supplemented with 1 mM glutamine, 5% FBS, 10% horse serum and penicillin, streptomycin. The day before transfection, PC12 cells were split 50% and plated on poly-D-lysine coated coverslips. Cells were transfected with Lipofectamine 2000 as per the manufacturer's protocol with GFP-PHPLCδ1. After 16-24 hours, cells were treated as indicated for 30 minutes in conditioned media. Cells were then briefly washed in PBS and fixed for 20 minutes in 4% paraformaldehyde. Cells were then washed in 0.1M glycine and twice in PBS for 5 minutes each. Cells were mounted using Vectashield. Images were collected using a con-focal microscope and the plot profile was analyzed with ImageJ 1.37v. The ratio of the fluorescence profiles of the plasma membrane and the cytosol were calculated and deemed to represent translocation of the PIP2 probe GFP-PH-PLCδ1 (72).

PI4KIIα = target: T1, PI4KIIα (Homo sapiens, UniProt Q9BTU6); test: PI4KIIα lipid kinase activity assay with TLC analysis; format: biochemical
T1 construct: made in house
Procedure: Lipid kinase assay and thin layer chromatography. In vitro lipid phosphorylation assays on post-nuclear supernatant of HEK293, Neuro2a or CHO cells expressing either WT or FAD mutant PS1 and PS2, were carried out as previously described (70). Briefly, 100 μg protein from the supernatant were mixed with 2.5 μl ATP (final: 50 μM), 2.5 μl CaCl2 (final: 50 μM), 27.0 μl EGTA-free kinase buffer (25 mM Hepes, 100 mM KC1, 2.5 mM MgCl2) and 0.5 μl gamma ATP (final 100 nCi/μl) and samples incubated at 37° C. for 15 min. Reaction products were extracted and analyzed by thin layer chromatography (TLC) silica plate (solvent: 64—acetone 30—methanol 24—acetic acid 32—water 14 (v/v)) and visualized by autoradiography.
Mammalian expression of a construct encoding either wild-type (IIα) or the kinase-dead mutant (IIα-KD) forms of PI4KIIα (HA-tagged) were transfected into CHO cells. The enzyme was immuno-isolated using anti-HA affinity beads from cell extracts. The purified PI4KIIα proteins were subjected to a lipid kinase activity assay and TLC analysis using PI as a substrate (FIG. 10C). PI4KIIα, but not the kinase-dead mutant, enhanced the incorporation of [γ32P]-ATP into PIP (FIG. 10C,D).

PIPK1γ = target: T2, PIPK1γ (Homo sapiens, UniProt O60331); test: PIPK1γ activity assay; format: biochemical; conditions: 50 μM
T2 construct: GST
Excerpt: Thus, (20S)Rg3 serves as an activator of PI4KIIα, resulting in the increase in the steady-state levels of PIP and subsequently the levels of PIP2.

Aβ42 = target: T3, Aβ42 (Homo sapiens, UniProt P05067); test: Oligomerization process of Aβ42
T3 construct: Synthetic Aβ (1-42) peptide was purchased from American Peptide; purchased American Peptide (Sunnyvale, Calif.); host or cells: synthetic peptide

APP/PS1 mice = test: Radial-arm water-maze in APP/PS1 mice; format: in vivo, mouse; conditions: i.p., 10 mg/kg, three weeks, 3 month-old APP/PS1 mice
Procedure: Therefore experiments were performed to determine whether (20S)Rg3 can improve the memory impairments in an AD mouse model. (20S)Rg3 was administered for three weeks (i.p., 10 mg/kg) to 3 month-old APP/PS1 mice and age-matched littermate controls. Mice were then subjected to behavioral testing in the radial-arm water-maze paradigm (74).

[2] = system: PI4KIIα-overexpressing cells; test: Aβ42 levels in PI4KIIα-overexpressing cells; format: cell-based
Procedure: Since (20S)Rg3 potentiates PI4KIIα activity (conversion from PI to PIP), it was determined whether the increase in PI4KIIα activity exerts similar effects on Aβ42 generation as observed in the (20S)Rg3-treated cells. Overexpression of PI4KIIα leads to increased protein levels of PI4KIIα and increased PI 4-kinase activity as measured by lipid kinase assay. […] Thus, increased levels of the (20S)Rg3 target protein PI4KIIα may amplify the effects of the Aβ42-lowering activity of (20S)Rg3.

[3] = system: PI4KIIα +/− ES-derived neurons; test: Aβ42 generation and PIP synthesis in PI4KIIα +/− ES cell-derived pyramidal neurons; format: cell-based, mouse
Excerpt: Mouse embryonic stem (ES) cell-derived pyramidal neurons that harbor the heterozygote knockout of the PI4KIIα allele (PI4KIIα +/−; purchased from Sanger Institute Gene Trap Resource; http://www.sanger.ac.uk/PostGenomics/genetrap/) were then used to further study the role for PI4KIIα in Aβ42 generation in neurons. Differentiation and morphology of pyramidal neurons from PI4KIIα heterozygote (+/−) ES cells were indistinguishable from those from match wild-type ES cells (representative neuronal staining is shown in FIGS. 14A and B). […] Aβ42 generation was substantially elevated in the neurons derived from PI4KIIα +/−ES cells.

HeLa cells = test: Lipid raft fractionation and Western blot of PS1 C-terminal fragments; format: cell-based
mouse cortical neurons = test: Phosphoinositide / anionic phospholipid levels in cultured cortical neurons (HPLC with suppressed conductivity); conditions: for PIP2 levels after Ca2+ ionophore: 2 μM; for effect of Ca2+ chelation on oAβ42-induced PIP2 decrease: oAβ42 for 60 min, EGTA 2 mM
Procedure: HPLC Lipid Analysis. Cells grown in 15-cm^2 dishes were scraped in 0.75 ml ice-cold MeOH: 1M HCl (1:1) supplemented with 2 mM AlCl3. Lipids were then extracted and deacylated by incubation with 0.5 ml methylamine reagent (MeOH:40% methylamine in water:n-butanol:water 47:36:9:8) at 50° C. for 45 min. The aqueous phase was dried, resuspended in 0.5 ml of n-butanol: petroleum ether:ethyl formate (20:40:1), and extracted twice with an equal volume of water. Aqueous extracts were dried, resuspended in water, and subjected to anion-exchange HPLC on an Tonpac AS11-HC column (Dionex). Negatively charged glycerol head groups were eluted with a 1.5-86 mM KOH gradient and detected online by suppressed conductivity 75 in a Dionex Ion Chromatography system equipped with an ASRS-ultra II self-regenerating suppressor. Individual peaks were identified and peak areas were calculated using the Chromeleon software (Dionex). Using deacylated anionic phospholipids as standards, lipid masses were calculated and expressed as molar fractions of total anionic phospholipids present in the sample (see Ref. 69).
2-week-old, cultured mouse cortical neurons were incubated with three different Aβ42 preparations (monomers, soluble oligomers, and fibrils) at concentrations of 200 nM. The levels of PIP2 were measured by conductance-based HPLC quantitation.
This preparation contains a mixture of monomers, trimers and tetramers as well as traces of dimers and high molecular weight oligomers, as described previously. Potential effects of this preparation were investigated either after an acute (0-120 min) or a subchronic treatment (72 h). The levels of phosphoinositides as well as a variety of other anionic phospholipids were measured and quantified in neuronal extracts using HPLC combined with suppressed conductivity detection (69, 71).
Cell culture. […] Primary cultures from cortical neurons were generated from newborn mice as described (126). Briefly, cortices were dissected out, trypsinized for 45 minutes, and then dissociated with a Pasteur pipette and plated on poly-ornithine coated 10 mm dishes at a density of 25,000 cells/cm^2 in Neurobasal-A medium containing 1 mM kyneurenic acid to reduce enhanced synaptic transmission due to the high density of the cultures.
Lipid measurements. Cultures were scrapped on a methanol:1N HCl 1:1 buffer supplemented with 2 mM AlCl3. Ice-cold chloroform (0.4 ml) was then added, and samples were vortexed for 1 min. The solvent phase was washed with 1 ml. methanol:2 mM oxalic acid (1:0.9 vol/vol) and dried under a flow of nitrogen.

[4] = system: N2a cells stably expressing human APP with the Swedish mutation; test: Aβ42/Aβ40 production in N2a cells stably expressing human APP with the Swedish mutation; format: cell-based; conditions: 6 hours treatment, read-out: EC50, inhibition of production of Aβ42 as well as Aβ40
Procedure: N2a cells stably expressing human APP with the Swedish mutation were grown in DMEM-supplemented with 50% Opti-MEM, 10% FBS, penicillin, streptomycin, and G418. Cells were grown to 80-90% confluence and treated for 6 hours with the drugs as indicated in 900 μl media. The conditioned media was harvested and centrifuged for 15 minutes at 14,000 rpm in a table top Eppendorf centrifuge 5417R. The adherent cells were washed two times with ice cold PBS and lysed in 100 μl super IP buffer (10 mM Tris Cl, pH, 7.4, 150 mM NaCl, 2 mM EDTA, 1% Triton X-100, 0.25% NP-40, protease inhibitors). Cell lysates were scraped and incubated for 15 minutes on ice before centrifugation at 14,000 rpm in a table-top Eppendorf centrifuge 5417R. Cleared conditioned media and lysates were stored at −80° C. until use. Aβ 42 and Aβ40 were quantified with the commercially available kit from Biosource as indicated in the protocol. Protein concentration of the cell lysate was determined using the BCA assay from Pierce.
KU-55933 is a small molecule inhibitor of ATM kinase as well as PI3K family members (FIG. 22). […] Aβ 42 and Aβ40 were quantified with the commercially available kit from Biosource as indicated in the protocol. Protein concentration of the cell lysate was determined using the BCA assay from Pierce.

[5] = system: N2a cells stably expressing APP harboring the Swedish mutation; test: Caspase 3 cleavage Western blot; format: cell-based; conditions: 6 hours; concentrations which decreased Aβ42 generation
Procedure: Western blot analysis of full length APP and caspase3 was conducted on 30 μg of lysate collected as described above from N2a cells stably expressing APP harboring the Swedish mutation. Cells were treated for 6 hours with KU-55933 at concentrations indicated. APP was detected using the LN27 antibody from Zymed and caspase 3 full length and cleavage product were probed using the caspase 3 antibody from Cell Signaling Technology.

[6] = previous studies (refs 113, 114); cited from earlier work

T1 sequence (Q9BTU6 whole entry): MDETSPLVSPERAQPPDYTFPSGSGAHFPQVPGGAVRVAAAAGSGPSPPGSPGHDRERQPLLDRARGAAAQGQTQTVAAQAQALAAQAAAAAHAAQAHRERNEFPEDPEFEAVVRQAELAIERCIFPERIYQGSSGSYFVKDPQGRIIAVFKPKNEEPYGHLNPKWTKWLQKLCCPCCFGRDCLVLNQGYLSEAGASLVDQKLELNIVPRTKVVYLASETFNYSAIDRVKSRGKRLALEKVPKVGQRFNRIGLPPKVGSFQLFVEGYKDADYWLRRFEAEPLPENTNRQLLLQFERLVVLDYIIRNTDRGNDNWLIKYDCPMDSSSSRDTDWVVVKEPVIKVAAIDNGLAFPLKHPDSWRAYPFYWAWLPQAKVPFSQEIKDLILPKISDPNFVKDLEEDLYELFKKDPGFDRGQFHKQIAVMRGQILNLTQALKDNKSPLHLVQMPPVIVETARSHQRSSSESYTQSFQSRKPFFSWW
T3 sequence (P05067 672-713 limits assumed): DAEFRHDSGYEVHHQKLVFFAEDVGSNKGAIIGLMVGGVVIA
T2 sequence (O60331 whole entry): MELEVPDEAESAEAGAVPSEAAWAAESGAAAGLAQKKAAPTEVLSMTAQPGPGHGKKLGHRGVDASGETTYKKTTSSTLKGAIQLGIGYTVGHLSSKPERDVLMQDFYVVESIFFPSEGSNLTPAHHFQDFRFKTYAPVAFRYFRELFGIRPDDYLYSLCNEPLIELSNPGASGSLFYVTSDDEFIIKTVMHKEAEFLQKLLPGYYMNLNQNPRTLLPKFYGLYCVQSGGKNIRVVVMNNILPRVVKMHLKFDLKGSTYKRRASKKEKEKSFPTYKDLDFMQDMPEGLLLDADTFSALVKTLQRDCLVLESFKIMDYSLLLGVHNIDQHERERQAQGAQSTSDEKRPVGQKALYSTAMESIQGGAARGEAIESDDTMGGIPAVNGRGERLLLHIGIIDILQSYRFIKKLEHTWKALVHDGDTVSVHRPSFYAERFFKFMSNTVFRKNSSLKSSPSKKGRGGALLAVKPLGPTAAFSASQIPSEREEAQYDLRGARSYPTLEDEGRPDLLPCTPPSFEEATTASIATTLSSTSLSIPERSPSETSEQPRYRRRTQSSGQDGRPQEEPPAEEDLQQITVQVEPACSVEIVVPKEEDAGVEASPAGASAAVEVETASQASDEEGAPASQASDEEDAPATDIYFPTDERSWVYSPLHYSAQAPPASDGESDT

## CC(C)=CCC[C@](C)(O)[C@H]1CC[C@]2(C)[C@@H]1[C@H](O)C[C@@H]1[C@@]3(C)CC[C@H](O[C@@H]4O[C@H](CO)[C@@H](O)[C@H](O)[C@H]4O[C@@H]4O[C@H](CO)[C@@H](O)[C@H](O)[C@H]4O)C(C)(C)[C@@H]3CC[C@]12C [(20S)Rg3]
[1]; 10 μM
  LTP on co-incubation with Aβ oligomers: resulted in normal LTP
PC12 cells; co-incubation with Aβ oligomers
  Aβ oligomer-induced loss of plasma membrane fluorescence: prevented the loss of the plasma membrane fluorescence
PI4KIIα; 50 μM with purified enzyme
  PI4KIIα activity: enhanced PI4KIIα activity in a dose-dependent manner
PI4KIIα; both enzymes incubated with compound
  PIP and PIP2 formation with both PI4KIIα and PIPK1γ: led to an increase of both PIP and PIP2
PIPK1γ
  activity of PIPK1γ: did not confer any detectable effects
Aβ42
  effect on oligomerization process of Aβ42: no effects on the oligomerization process of Aβ42
APP/PS1 mice
  spatial working memory deficits: dramatically improved spatial working memory deficits
[2]
  Aβ42 reduction: conferred additive effects on Aβ42 reduction
[3]; PI4KIIα +/− ES-derived neurons
  ability to reduce Aβ42: no longer able to reduce Aβ42
[3]; PI4KIIα +/− clonal lines AC37 and AD14
  compound-induced PIP synthesis: substantially reduced
HeLa cells; HeLa cells
  lipid raft-associated PS1-CTF levels: significantly reduced
  total PS-CTF levels: unchanged
Mouse cortical neurons; 100 μM
  steady-state levels of PIP and PIP2: increased steady-state levels of both PIP and PIP2
Mouse cortical neurons; cells pre-incubated with compound
  Aβ42 oligomer-induced PIP2 reduction, pre-incubation: blocked efficiently
Mouse cortical neurons; cultured neurons
  oAβ42-induced increase in PA levels: inhibited the increase in PA levels
Mouse cortical neurons; treatment / co-treatment of cultured neurons
  Aβ42 oligomer-induced reduction in PIP2 levels: inhibited the reduction in PIP2 levels

## CNc1ccc2oc(C[C@H]3O[C@@]4(CC[C@H]3C)O[C@H]([C@H](C)C(=O)c3ccc[nH]3)[C@H](C)C[C@H]4C)nc2c1C(=O)O [A23187]
Mouse cortical neurons
  PIP2 levels after Ca2+ ionophore: caused PIP2 levels to decrease

## CC(=O)OCOC(=O)CN(CC(=O)OCOC(C)=O)c1ccccc1OCCOc1ccccc1N(CC(=O)OCOC(C)=O)CC(=O)OCOC(C)=O [BAPTA-AM]
Mouse cortical neurons
  effect of Ca2+ chelation on oAβ42-induced PIP2 decrease: blocked the action of oAβ42
Mouse cortical neurons; vehicle-treated and oAβ42-treated cortical neurons
  increase in the levels of PtdIns(4,5)P2: 2 fold

## O=C(O)CN(CCOCCOCCN(CC(=O)O)CC(=O)O)CC(=O)O [EGTA]
Mouse cortical neurons
  effect of Ca2+ chelation on oAβ42-induced PIP2 decrease: prevented oAβ42 from decreasing PIP2 levels

## O=c1cc(-c2cccc3c2Sc2ccccc2S3)oc(N2CCOCC2)c1 [KU-55933]
PC12 cells; 30 minutes, concentration comparable to EC50 for Aβ42
  depletion of PIP2 caused by Aβ42 oligomers: rescued the depletion of PIP2
[4]
  EC50: 3.5 µM
[5]
  caspase 3 cleavage: did not induce caspase 3 cleavage
[6]
  cytotoxicity: found not to be cytotoxic

## COc1ccc2c(c1)CC[C@@H]1[C@@H]2CC[C@]2(C)[C@@H](NCCCCCCN3C(=O)C=CC3=O)CC[C@@H]12 [U73122]
PC12 cells; oAβ42 60 min, inhibitor 0.5 μM
  PIP2 levels on oAβ42 treatment in presence of PLC inhibitor: PIP2 levels remained unaffected by oAβ42

## C[C@H](CCC(=O)O)C[C@H](C)C[C@H](C)C(=O)/C=C(\O)[C@H](C)C[C@H](C)C/C=C/[C@@H](C)[C@@H](O)[C@@H](C)[C@@H](O)C[C@@H]1CC[C@@](C)([C@H]2CC[C@@](C)([C@@H](C)O)O2)O1 [ionomycin]
PC12 cells
  GFP-PHPLCδ1 probe localization: mimicked
Mouse cortical neurons
  PIP2 levels after Ca2+ ionophore: caused PIP2 levels to decrease

## CSc1ccc(/C=C2/C(C)=C(CC(=O)O)c3cc(F)ccc32)cc1 [sulindac sulfide]
HeLa cells
  association of PS1 fragments with lipid rafts: did not confer any effects

## oAβ42: crude oligomer preparation made from synthetic Aβ42 peptides
[1]; control (Synj1+/+) slices
  effect on LTP: partially impaired LTP
PC12 cells
  GFP-PHPLCδ1 probe localization: significant disappearance of the probe from the plasma membrane
Mouse cortical neurons; 200 nM
  ATP levels: normal
Mouse cortical neurons; 200 nM, 2-week-old cultured mouse cortical neurons
  effect on PA levels: up-regulated
Mouse cortical neurons; 3-day treatment, versus vehicle
  number of apoptotic nuclei: comparable or slightly less
Mouse cortical neurons; 3-day treatment, versus vehicle-treated neurons
  amount of pyknosis: undistinguishable from that occurring in vehicle-treated neurons
Mouse cortical neurons; crude oligomer preparation of synthetic Aβ42, after 120 min
  levels of PtdA: approximately 130 % of control
